Measured values taken from the supplement of paper PMC8633005.

Legend:
Experiment in all cases: drug sensitivity score (DSS) (DSS (unitless, 0-50 scale)); higher = more sensitive (stronger viability inhibition); extreme values may be limits of the assay
Conditions in all cases: 72 h; culture: 2D
Bowes = test system: Bowes
Summary of the method: (§1)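 Viability was measured by CellTiter-Glo luminescence after 72 h at 37 °C in 384-well plates holding a 527-compound oncology library, with patient-derived melanoma cultures (1000–1500 cells per well) and melanoma cell lines grown in 2D. Every compound was tested at five concentrations spanning a 10,000-fold range. The drug sensitivity score, a modified area under the curve, came from dose-response curves fitted with in-house Breeze software.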

FM-MEL-2 = test system: FM-MEL-2
Summary of the method: as §1

FM-MEL-3 = test system: FM-MEL-3
Summary of the method: as §1

FM-MEL-6 = test system: FM-MEL-6
Summary of the method: as §1

SK-MEL-28 = test system: SK-MEL-28
Summary of the method: as §1

SK-MEL-2 = test system: SK-MEL-2
Summary of the method: as §1

WM165 = test system: WM165
Summary of the method: as §1

WM852 = test system: WM852
Summary of the method: as §1

Compound | drug sensitivity score (Bowes) | drug sensitivity score (FM-MEL-2) | drug sensitivity score (FM-MEL-3) | drug sensitivity score (FM-MEL-6) | drug sensitivity score (SK-MEL-28) | drug sensitivity score (SK-MEL-2) | drug sensitivity score (WM165) | drug sensitivity score (WM852)
C=CCN(/C=C1/C(=O)O[C@H](COC)[C@@]2(C)C1=C(O)C(=O)C1=C2[C@H](OC(C)=O)C[C@]2(C)C(=O)CC[C@@H]12)CC=C [Sonolisib] | 0 | 0 | 0 | 0 | 0 | 0 | 0 | 0
CCN(CC)CCOc1ccc(C(=C(Cl)c2ccccc2)c2ccccc2)cc1 [Clomifene] | 5.8 | 4.1 | 5.6 | 6.3 | 6.8 | 4.2 | 6.1 | 5.2
CN1CCN(C2CCN(C(=O)Nc3cc(Oc4ccc(NC(=O)C5(C(=O)Nc6ccc(F)cc6)CC5)c(F)c4)ccn3)CC2)CC1 [Golvatinib] | 2.3 | 1.5 | 0 | 0 | 0 | 0 | 0 | 0.5
Clc1ccccc1C(c1ccccc1)(c1ccccc1)n1cccn1 [TRAM-34] | 0 | 0 | 0 | 0 | 0 | 0 | 0 | 0
O=C(Nc1nc2cccc(-c3ccc(CN4CCS(=O)(=O)CC4)cc3)n2n1)C1CC1 [Filgotinib] | 4.5 | 0 | 0 | 4.5 | 0 | 0 | 0.7 | 5.9
COc1cc(C)[nH]c(=O)c1CNC(=O)c1c(C)n([C@H](C)C2CCOCC2)c2ccccc12 [CPI-360] | 0 | 0.2 | 0 | 0.6 | 0 | 0 | 0 | 0
COc1cccc2c1C(=O)c1c(O)c3c(c(O)c1C2=O)C[C@@](O)(C(=O)CO)C[C@@H]3O[C@H]1C[C@H](N)[C@@H](O)[C@H](C)O1 [Epirubicin] | 4 | 6 | 7.6 | 8.6 | 7.4 | 5.3 | 14.3 | 4.6
O=C(/C=C/c1cccc(S(=O)(=O)Nc2ccccc2)c1)NO [Belinostat] | 7.9 | 9.4 | 12.5 | 13.9 | 10.6 | 13.6 | 17.7 | 5.7
O=C(CCCCCCC(=O)Nc1ccccc1)NO [Vorinostat] | 0.7 | 5.6 | 9.2 | 8.4 | 7.9 | 6.1 | 9.1 | 4.4
Cn1cc(C2=C(c3cn(C4CCN(Cc5ccccn5)CC4)c4ccccc34)C(=O)NC2=O)c2ccccc21 [Enzastaurin] | 0 | 1.7 | 3.7 | 0 | 0 | 0.2 | 0 | 2.1
